Data published in patent publication US9732031B2 (priority 2013, dated 2017).

Key:
in vivo = conditions: male, C57BL/6, mouse, po; for half-life: 75 mg/kg
Description: As appreciated, h-rac-bupropion is a 1:1 mixture of the two protonated enantiomers h-S-bupropion and h-R-bupropion. […] Animals were euthanized at preset time points (n=3 per time point). […] Quantitative data was analyzed in Excel (Microsoft Corp, Redmond, Wash.) using the PKSolver add-in (version 2, as described by Zhang et al. in Comput Methods Programs Biomed 99 (2010) 306-314) to determine PK parameters.

female CD-1 mice = test: Behavioral effects after intraperitoneal injection in female CD-1 mice; conditions: 2 h observation
Description: Individual body weights were used for dose volume calculations. Equal numbers of animals per group were tested each day. […] Animals were also observed 24 h post-dose. During the 2 h observation period, presence or absence of ataxic gait, paralysis, hyperactivity, hypoactivity, and catatonic episodes was recorded. Number, time of onset, duration, and intensity of convulsions were also recorded. Duration of each convulsion was graded as short (1 to 10 s), medium (11 to 30 s), or long (≧31 s). Intensity of convulsion was similarly graded as mild, moderate, or severe. Any animal showing a single episode of severe seizure longer than 1 min or experiencing greater than 40 consecutive episodes of severe convulsions over 1 h or less was euthanized.

[1] = molecular target: T1, human α7 nicotinic acetylcholine receptor (Homo sapiens, UniProt P36544); test: Inhibition of acetylcholine induced current in Xenopus Laevis oocytes overexpressing α7 nAChR; format: cell-based
T1 construct: expressed in transfected cells; host or cells: Xenopus laevis oocytes injected with cDNA
T1 sequence (P36544 23-502): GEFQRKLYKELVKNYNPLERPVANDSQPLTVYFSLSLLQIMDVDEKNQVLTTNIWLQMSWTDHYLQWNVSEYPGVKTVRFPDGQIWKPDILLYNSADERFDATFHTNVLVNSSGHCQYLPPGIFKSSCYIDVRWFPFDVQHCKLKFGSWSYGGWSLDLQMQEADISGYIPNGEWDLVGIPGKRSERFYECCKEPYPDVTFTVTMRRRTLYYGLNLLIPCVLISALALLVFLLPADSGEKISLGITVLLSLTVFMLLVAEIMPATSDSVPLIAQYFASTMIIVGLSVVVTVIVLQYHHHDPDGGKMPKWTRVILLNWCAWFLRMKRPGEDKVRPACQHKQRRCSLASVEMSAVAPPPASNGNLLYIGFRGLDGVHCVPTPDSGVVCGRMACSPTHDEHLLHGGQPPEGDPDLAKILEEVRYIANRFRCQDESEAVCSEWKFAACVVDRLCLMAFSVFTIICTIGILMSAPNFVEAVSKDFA
Description: Evaluation of the antagonist activity of the enantiomers of deuterated bupropion at α7 and α4β2 nicotinic acetylcholine receptors (nAChRs) was carried out in Xenopus Laevis oocytes prepared and injected with the corresponding cDNA using standard procedures. Receptor expression was examined two days after injection. For α4β2 nAChR, the two cDNAs were injected in equimolar amounts. All experiments were performed at 18° C. and cells were superfused with OR2 medium containing 82.5 mM sodium chloride, 2.5 mM potassium chloride, 5 mM HEPES, 1.8 mM calcium chloride, and 1 mM magnesium chloride at pH 7.4. A two-electrode voltage-clamp configuration was used to record currents evoked by acetylcholine addition. Data acquisition and analysis was performed in Matlab (Mathworks, Inc., Natick, Mass.). Statistical analysis was executed in Excel (Microsoft Corp, Redmond, Wash.) or Matlab (Mathwork, Inc., Natick, Mass.). All experiments were carried out using at least 3 oocytes.

[2] = molecular target: T2, norepinephrine transporter (Rattus norvegicus, UniProt Q63380); test: Inhibition of norepinephrine uptake in rat hypothalamus synaptosomes; format: biochemical
T2 construct: tissue Cerep, France (assay provider); host or cells: rat hypothalamus synaptosomes
T2 sequence (Q63380 1-617): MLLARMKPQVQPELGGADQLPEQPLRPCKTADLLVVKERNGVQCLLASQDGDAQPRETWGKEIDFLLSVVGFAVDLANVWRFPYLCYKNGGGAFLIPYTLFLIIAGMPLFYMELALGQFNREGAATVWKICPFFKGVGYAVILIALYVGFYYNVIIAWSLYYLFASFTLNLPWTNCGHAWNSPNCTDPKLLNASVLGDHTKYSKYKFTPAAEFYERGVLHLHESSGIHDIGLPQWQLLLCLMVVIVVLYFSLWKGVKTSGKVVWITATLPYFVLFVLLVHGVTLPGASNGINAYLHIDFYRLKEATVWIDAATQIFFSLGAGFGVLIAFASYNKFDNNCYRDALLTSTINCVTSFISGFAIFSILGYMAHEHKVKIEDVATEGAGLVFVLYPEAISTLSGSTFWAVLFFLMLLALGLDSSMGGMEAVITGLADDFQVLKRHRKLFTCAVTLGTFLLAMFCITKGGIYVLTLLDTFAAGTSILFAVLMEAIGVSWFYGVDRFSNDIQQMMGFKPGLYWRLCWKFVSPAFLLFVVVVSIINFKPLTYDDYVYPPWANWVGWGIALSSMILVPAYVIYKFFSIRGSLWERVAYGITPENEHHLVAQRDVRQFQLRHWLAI
Description: The inhibitory activity of the (S)- and (R)-enantiomers of 1-(m-chlorophenyl)-2-(tert-butylamino)-(2-^2H)-propan-1-one was evaluated in the rat synaptosome assay (Cerep, France). Briefly, compounds were incubated for 20 min at 37° C. with rat hypothalamus synaptosomes in the presence of tritiated norepinephrine (NE). The uptake of radiolabeled NE by the synaptosomes was measured as a function of compound concentration. Inhibition of the transporter is observed when the amount of radioactivity in the synaptosomes is lower in the presence of test article. Analysis of the data was performed using the log(inhibitor) vs. response—variable slope (four parameters) model in GraphPad Prism 6.0 (GraphPad Software, Inc., La Jolla, Calif.), where response is % inhibition (% inhibition=100 [(NE uptake)control−(NE uptake)compound)]/(NE uptake)vehicle). Both inhibition curves were characterized by Hill slopes close to 1.

dopamine transporter = molecular target: T3, dopamine transporter (Rattus norvegicus, UniProt P23977); test: Inhibition of dopamine uptake in rat striatum synaptosomes; format: biochemical
T3 construct: tissue Cerep, France (assay provider); host or cells: rat striatum synaptosomes
T3 sequence (P23977 whole entry): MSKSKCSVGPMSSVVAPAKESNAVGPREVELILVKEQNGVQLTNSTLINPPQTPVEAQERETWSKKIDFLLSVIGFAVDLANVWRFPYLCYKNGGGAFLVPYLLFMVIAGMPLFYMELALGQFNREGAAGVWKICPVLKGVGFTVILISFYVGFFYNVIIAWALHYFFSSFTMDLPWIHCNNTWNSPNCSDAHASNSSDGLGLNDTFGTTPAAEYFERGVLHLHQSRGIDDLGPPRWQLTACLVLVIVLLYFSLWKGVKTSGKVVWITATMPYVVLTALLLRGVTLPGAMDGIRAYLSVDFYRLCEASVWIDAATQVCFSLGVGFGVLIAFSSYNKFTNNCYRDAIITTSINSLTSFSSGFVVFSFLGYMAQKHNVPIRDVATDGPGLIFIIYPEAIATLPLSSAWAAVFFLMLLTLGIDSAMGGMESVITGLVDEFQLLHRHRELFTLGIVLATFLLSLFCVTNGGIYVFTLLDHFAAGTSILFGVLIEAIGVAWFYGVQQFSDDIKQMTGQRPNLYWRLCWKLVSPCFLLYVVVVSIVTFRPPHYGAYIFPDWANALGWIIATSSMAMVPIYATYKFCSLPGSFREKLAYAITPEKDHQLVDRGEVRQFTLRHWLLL
Description: The inhibitory activity of the (S)- and (R)-enantiomers of 1-(m-chlorophenyl)-2-(tert-butylamino)-(2-^2H)-propan-1-one was evaluated in the rat synaptosome assay (Cerep, France). Briefly, each compound was incubated for 15 min at 37° C. with rat striatum synaptosomes in the presence of tritiated dopamine (DA). The uptake of radiolabeled DA by the synaptosomes was measured by scintillation counting as a function of compound concentration. Inhibition of the dopamine transporter is observed when the amount of radioactivity in the synaptosomes is lower in the presence of the test article than in its absence. Analysis of the data was performed using the log(inhibitor) vs. response—variable slope (four parameters) model in GraphPad Prism 6.0 (GraphPad Software, Inc., La Jolla, Calif.), where response is % inhibition (% inhibition=100 [(DA uptake)control−(DA uptake)compound)]/(DA uptake)vehicle). Both inhibition curves were characterized by Hill slopes close to 1.

SMILES	AUC0-t of hR (h-R-bupropion) in plasma (in vivo) [ng·h/mL]	AUC0-t of hRR (h-RR-hydroxybupropion) in plasma (in vivo) [ng·h/mL]	AUC0-t of hS (h-S-bupropion) in plasma (in vivo) [ng·h/mL]	AUC0-t of hSS (h-SS-hydroxybupropion) in plasma (in vivo) [ng·h/mL]	mice per dose group experiencing ataxia (female CD-1 mice; 100 mg/kg i.p.) [%]	mice per dose group experiencing catatonia (female CD-1 mice; 100 mg/kg i.p.) [%]	mice per dose group experiencing convulsions (female CD-1 mice; 100 mg/kg i.p.) [%]	mice per dose group experiencing hyperactivity (female CD-1 mice; 100 mg/kg i.p.) [%]	mice per dose group experiencing hypoactivity (female CD-1 mice; 100 mg/kg i.p.) [%]	mice per dose group experiencing ataxia (female CD-1 mice; 125 mg/kg i.p.) [%]	mice per dose group experiencing catatonia (female CD-1 mice; 125 mg/kg i.p.) [%]	mice per dose group experiencing convulsions (female CD-1 mice; 125 mg/kg i.p.) [%]	mice per dose group experiencing hyperactivity (female CD-1 mice; 125 mg/kg i.p.) [%]	mice per dose group experiencing hypoactivity (female CD-1 mice; 125 mg/kg i.p.) [%]	mice per dose group experiencing ataxia (female CD-1 mice; 150 mg/kg i.p.) [%]	mice per dose group experiencing catatonia (female CD-1 mice; 150 mg/kg i.p.) [%]	mice per dose group experiencing convulsions (female CD-1 mice; 150 mg/kg i.p.) [%]	mice per dose group experiencing hyperactivity (female CD-1 mice; 150 mg/kg i.p.) [%]	mice per dose group experiencing hypoactivity (female CD-1 mice; 150 mg/kg i.p.) [%]	IC50 [1] [µM]	other results
CC(NC(C)(C)C)C(=O)c1cccc(Cl)c1 (racemic) [h-rac-bupropion, racemic-1-(m-chlorophenyl)-2-(tert-butylamino)-propan-1-one, reference compound]	6798	18393	5265	6591																	
[2H][C@](C)(NC(C)(C)C)C(=O)c1cccc(Cl)c1 [d-R-bupropion, (R)-1-(m-chlorophenyl)-2-(tert-butylamino)-(2-^2H)-propan-1-one]	496	1685	340	169	56	78	33	0	100	80	90	60	0	100	90	100	100	0	100	28.7	IC50 [2]: 5.76 µM; IC50 (dopamine transporter): 4.2 µM; AUC0-t of dRR (d-RR-hydroxybupropion) in plasma (in vivo): 22059 ng·h/mL; half-life (in vivo): 1.7 h
[2H][C@@](C)(NC(C)(C)C)C(=O)c1cccc(Cl)c1 [d-S-bupropion, (S)-1-(m-chlorophenyl)-2-(tert-butylamino)-(2-^2H)-propan-1-one]	269	1129	469	395	70	10	40	100	0	89	44	70	78	0	100	80	100	20	80	43.2	IC50 [2]: 2.3 µM; IC50 (dopamine transporter): 0.42 µM; AUC0-t of dSS (d-SS-hydroxybupropion) in plasma (in vivo): 6545 ng·h/mL; AUC(0-t) (in vivo): 4760 ng·h/mL; half-life (in vivo): 0.9 h
